# Measured values: paper PMC5799093, “Proceedings of Réanimation 2018, the French Intensive Care Society International Congress” (Annals of Intensive Care, 2018)
# Read-outs that look alike come from different tables or passages of the source.
# Legend:
# [1] = system: Enterococcus faecalis; experiment: Resistance in nosocomial urinary tract infection: Enterococcus faecalis (P-219); conditions: January 2010 - June 2014
# [2] = Residual serum concentrations of piperacillin and amoxicillin and neurological disorders (HPLC MS); assay type: in vivo, critically ill patients
# Protocol: Patients and methods: This study was carried out retrospectively during the period 01.01.2015 to 08.02.2017, in patients hospitalized in the medical ICU-CHU Rouen with PTM.
# [3] = Piperacillin population pharmacokinetics in critically ill children; assay type: in vivo; conditions: median (range), one compartment model, n = 50 children
# Description: Pharmacokinetics were described using the non-linear mixed effect modelling software MONOLIX.
# [4] = system: tramadol-overdosed rats; experiment: Antidotes for tramadol overdose: seizures, plethysmography, sedation, EEG; conditions: for tramadol-induced respiratory depression / ventilation: whole-body plethysmography
# [5] = system: Escherichia-coli; experiment: Resistance in nosocomial urinary tract infection: Escherichia-coli (P-219); conditions: January 2010 - June 2014
# [6] = system: carbapenemase-producing Enterobacteriaceae; experiment: Antibiotic susceptibility of Enterobacteriaceae with decreased susceptibility to carbapenems; assay type: cell-based
# [7] = system: Staphylococcus aureus; assay type: cell-based; conditions: blood culture isolates 2012–2016
# Protocol: (§1) Patients and methods: From January 2012 to December 2016, a total of 2,182 non repetitive strains were isolated from blood cultures. Incubation of blood culture vials and the detection of bacterial growth were performed by the BACTEC system. All Isolated organisms were identified on the basis of standard microbiological techniques. Antibiotic susceptibility testing was carried out by the agar disk diffusion method, and susceptibility results were interpreted using clinical breakpoints according to CA-SFM 2013 and 2015 guidelines. Data were analyzed using the SIR-system. Minimum inhibitory concentrations of colistin, imipenem and vancomycin were determined using the Etest® method (bioMérieux).
# [8] = system: diaphragm contraction and workload; experiment: Diaphragmatic electromyography after diazepam / buprenorphine; assay type: in vivo, Sprague–Dawley rat; conditions: 30 mg kg BUP intraperitoneally, 20 mg kg DZP subcutaneously
# Protocol: Patients and methods: 11C-BUP was administered intravenously, 30 mg kg unlabeled BUP intraperitoneally and 20 mg kg DZP subcutaneously.
# [9] = system: patients after out-of-hospital cardiac arrest
# [10] = target: glucocorticoid receptors (Homo sapiens, UniProt P04150)
# Chain of glucocorticoid receptors (P04150 whole entry): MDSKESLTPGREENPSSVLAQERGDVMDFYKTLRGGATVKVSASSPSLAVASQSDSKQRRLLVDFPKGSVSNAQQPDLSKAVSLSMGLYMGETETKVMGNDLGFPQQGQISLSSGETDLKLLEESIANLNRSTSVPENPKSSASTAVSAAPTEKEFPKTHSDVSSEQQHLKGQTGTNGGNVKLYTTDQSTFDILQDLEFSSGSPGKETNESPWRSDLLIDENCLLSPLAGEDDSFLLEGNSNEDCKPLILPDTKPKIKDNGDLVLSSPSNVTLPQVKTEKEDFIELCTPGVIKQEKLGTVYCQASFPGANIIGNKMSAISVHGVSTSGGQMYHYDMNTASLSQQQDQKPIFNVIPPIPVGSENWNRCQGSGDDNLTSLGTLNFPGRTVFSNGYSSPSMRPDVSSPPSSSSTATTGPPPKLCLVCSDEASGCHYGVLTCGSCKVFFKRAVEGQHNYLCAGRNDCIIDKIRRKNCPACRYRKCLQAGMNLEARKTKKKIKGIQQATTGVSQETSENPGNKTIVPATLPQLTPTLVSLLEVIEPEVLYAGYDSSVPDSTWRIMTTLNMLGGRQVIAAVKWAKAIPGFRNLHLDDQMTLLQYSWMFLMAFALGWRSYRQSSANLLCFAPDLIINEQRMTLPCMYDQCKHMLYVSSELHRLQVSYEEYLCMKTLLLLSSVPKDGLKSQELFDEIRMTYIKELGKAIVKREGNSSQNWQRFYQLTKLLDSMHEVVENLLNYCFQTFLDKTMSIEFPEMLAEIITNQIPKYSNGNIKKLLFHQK
# [11] = system: Stenotrophomonas maltophilia VAP; experiment: Risk factors for Stenotrophomonas maltophilia VAP, matched analysis; assay type: in vivo, patients; conditions: exposure during the week before VAP; 93 cases, 380 controls
# Protocol: Patients and methods: We conducted a retrospective analysis of prospectively collected data in a multicenter database in France. VAP was determined as microbiologically documented pneumonia occurring after at least two days of mechanical ventilation. All patients admitted from 2000 to 2015 presenting at least one episode of VAP were included. SM-VAP were compared with VAP due to other micro-organisms (VAP-other). To assess risk factors and day-30 (D30) mortality, SM-VAP were matched (1 − n) with VAP-other based on center, time from ICU admission to VAP occurrence, and SAPS II score.
# [12] = Hemodynamic and metabolic effects of molar sodium lactate infusion in critically ill patients (P-135); assay type: in vivo, human
# Protocol: Patients and methods: This was a retrospective study performed in a large University Hospital. All patients receiving the molecule were included in the analysis. Indication for sodium lactate, dose, and modality of administration were collected. We also collected clinical and biological variables before sodium lactate infusion, after 6 h (H6), and after 24 h (H24). An analysis of the evolution of these variables at H6 and H24 was performed.
# [13] = system: E.coli lipopolysaccharide-challenged rats; experiment: Sodium lactate vs 0.9% NaCl in rat endotoxin shock: fluid balance and capillary leak; assay type: in vivo
# Protocol: Patients and methods: The sixteen sedated, mechanically ventilated rats were challenged with intravenous infusion of E.coli lipopolysaccharide (10 mg/kg). Two groups of eight animals were randomised to receive a continous perfusion (5 mL/kg/h) of sodium lactate 11.2% (treatment group) or 0.9% NaCl (control group). In order to inject the same caloric load in the two groups, a 4.35 mL/kg/h of either water of 10% dextrose solution were perfused. Mean arterial pressure, heart rate, urine ouput were measured over a 210 min period. An echocardiography was then performed and Evans Blue (1%, 30 mg/kg) was intravenously injected 30 min before sacrifice. Organs were withdrawn and organs wet dry ratio and Evans blue dye extravasation were measured.
# [14] = system: Pseudomonas; conditions: January 2010 - June 2014
# [15] = system: Acinetobacter baumannii; assay type: cell-based; conditions: blood culture isolates 2012–2016
# Protocol: as §1
# [16] = system: Klebsiella pneumoniae
# [17] = Beta-lactam plasma concentrations in children with severe sepsis or septic shock (HPLC); conditions: current standard dosing
# [18] = system: Pseudomonas aeruginosa
# [19] = Norepinephrine in pediatric septic shock, mortality (P-169); assay type: in vivo, human (children)
# [20] = system: cardiogenic shock patients; experiment: OPTIMA CC double-blind randomized trial, epinephrine vs norepinephrine in cardiogenic shock after myocardial infarction; assay type: in vivo
# Description: Patients and methods: Multicenter, double-blind, randomized trial in 8 french ICU. Cardiogenic shock patients due to myocardial infarction treated by PCI were randomized to receive epinephrine or norepinephrine to maintain MAP at 70 mmHg. Dobutamine was introduced at the physician discretion according to a combination of parameters—echocardiographic parameters, cardiac index, lactate clearance, SVO2 and Swan-Ganz derived parameters.
# [21] = system: Acinetobacter Baumanii; experiment: Resistance of nosocomial infection isolates: Acinetobacter Baumanii (P-222); assay type: cell-based; conditions: n = 39 isolates, 2016
# Description: Patients and methods: This was a retrospective study conducted within a 22-bed medical ICU of a Tunisian teaching hospital (301 beds) carried from January 1st to December 31, 2016. We recorded demographic patients’ characteristics which ICU’s stay was complicated with at least one NI. Then we described pathogens and microbiological specificities of NI.
# [22] = system: acutely poisoned ventilated patients; conditions: human, in vivo
# [23] = system: Staphylococcus aureus; experiment: Resistance in nosocomial urinary tract infection: Staphylococcus aureus (P-219); conditions: January 2010 - June 2014
# [24] = system: Farnesoid X receptor (FXR); experiment: LPS sepsis in CKD mice treated with sevelamer (P-138); assay type: in vivo, mice (C57BL6 J)
# Protocol: Patients and methods: Sepsis was provoked by the injection of 0.5 mg kg of LPS 6 weeks after the creation of CKD. The CKD was created by unilateral nephrectomy associated with contralateral thermocauterisation. The mice (C57BL6 J) were randomly assigned to one of the following groups—sham placebo, CKD placebo, sham LPS or CKD LPS. A fifth group of CKD LPS mice received a treatment with sevelamer (a bile acid sequestrant) during 6 weeks. Survival of the animals, serum biochemistry and molecular biology in the kidney were performed after sacrifice.
# [25] = not given; remark: listed apart in the source
molecule,measurement,setting,value
CC1(C)S[C@@H]2[C@H](NC(=O)[C@H](N)c3ccccc3)C(=O)N2[C@H]1C(=O)O [ampicillin],resistance,[1],no resistance
CCN1CCN(C(=O)N[C@@H](C(=O)N[C@@H]2C(=O)N3[C@@H]2SC(C)(C)[C@@H]3C(=O)O)c2ccccc2)C(=O)C1=O [Piperacillin],residual concentration associated with occurrence of neurological disorders,[2]; 80% specificity and sensitivity,greater than 40 mg L^−1
same,"residual serum concentration, patients with neurological disorders or wakefulness delays",[2]; HPLC MS,98.2 ± 16.8 mg L^−1
same,"residual serum concentration, patients without neurological disorders",[2]; HPLC MS,21.6 ± 4.0 mg L^−1
same,clearance,"[3]; MONOLIX, intermittent infusions",3 (0.71–10) L h^−1
same,volume of distribution,[3],3.8 (0.72–25.8) L
Cyclosporine A [CsA],"IL-1, IL-6, IL-8 and TNFα levels versus Control group","D0 and D1, p = ns",did not significantly differ
same,level of IL 10 at admission versus Control group,p < 0.05,significantly lower
CN1C(=O)CN=C(c2ccccc2)c2cc(Cl)ccc21 [diazepam],sedation depth,"[4]; rat, in vivo",significantly deepened rat sedation
same,tramadol-induced respiratory depression / ventilation,[4],without improving ventilation
C[C@@H](O)[C@H]1C(=O)N2C(C(=O)O)=C(S[C@@H]3CN[C@H](C(=O)Nc4cccc(C(=O)O)c4)C3)[C@H](C)[C@H]12 [ertapenem],resistance,[5],without resistance
same,strains with MIC > 1 mg l,[6]; 39 selected bacteria,95%
CN(C)c1cc(NC(=O)CNC(C)(C)C)c(O)c2c1C[C@H]1C[C@H]3[C@H](N(C)C)C(O)=C(C(N)=O)C(=O)[C@@]3(O)C(O)=C1C2=O [tigecycline],resistance rate,[7],15%
same,susceptibility,[6]; colistin excepting with Proteus,63%
buprenorphine,diaphragm contraction (first 60 min AUC),[8],significantly increased
same,diaphragm workload (first 60 min AUC),[8],significantly increased
amoxicillin-clavulanic acid,HR for early VAP vs placebo,"[9]; IC 95% [0.315 + 0.946], p = 0.031",0.546
same,incidence of early VAP (< 7 days),"[9]; IV 1 g 200 mg three times a day for 2 days, n = 99",19.2%
same,Day 28 mortality,[9]; n = 99,41.4%
same,"late VAP (> 7 days), number of patients",[9]; n = 99,4
C[C@H]1C[C@H]2[C@@H]3CCC4=CC(=O)C=C[C@]4(C)[C@@]3(F)[C@@H](O)C[C@]2(C)[C@@]1(O)C(=O)CO [Betamethasone],corticoresistance (mean blanching score < 2),[10]; non-septic critically ill,56%
same,corticoresistance (mean blanching score < 2),"[10]; septic shock, 10 µl cream on 3 cm^2, read at 24 h",78%
O=C(O)c1cn(C2CC2)c2cc(N3CCNCC3)c(F)cc2c1=O [ciprofloxacin],"OR for SM-VAP, univariate analysis",[11],1.77 [0.92; 3.39]
CC(O)C(=O)[O-].[Na+] (centres unmarked) [sodium lactate],diuresis,"[12]; 6 h period following initiation, p = 0.02",increase
same,mean arterial pressure,"[12]; at H6 (p = 0.009) and H24 (p = 0.003), 250 ml infusion, 104 patients",significant increase
same,"pH, bicarbonate, base excess, and sodium","[12]; at H6 and H24, all p < 0.0001",increase
same,patients with plasma sodium >= 150 mmol l and pH >= 7.50,[12]; at H24,5%
same,catecholamine dose,"[12]; at H24, p = 0.002",decrease
same,heart rate,"[12]; at H24, p = 0.05",decrease
same,hemodynamics parameters,[13]; after sodium lactate infusion,not significantly enhanced
same,"fluid balance, organs wet dry ratio and Evans blue dye extravasation","[13]; sodium lactate 11.2% 5 mL/kg/h vs 0.9% NaCl, LPS 10 mg/kg, 210 min",not significantly improved
CC(C)(O/N=C(\C(=O)N[C@@H]1C(=O)N2C(C(=O)[O-])=C(C[n+]3ccccc3)CS[C@H]12)c1csc(N)n1)C(=O)O [ceftazidime],resistant,[14],61%
same,resistance rate,[15],Eighty per cent
same,resistance rate,[16],70%
same,patients with insufficient plasma concentration,[17],0%
same,resistance rate,[18],39%
C[C@]1(Cn2ccnn2)[C@H](C(=O)O)N2C(=O)C[C@H]2S1(=O)=O [Tazobactam],"OR for SM-VAP, univariate analysis",[11],1.75 [1.04; 2.94]
NC[C@H](O)c1ccc(O)c(O)c1 [norepinephrine],OR of maximal dose for mortality,"[19]; 95% confidence interval 1.1–2.0, p = 0.02",1.4
same,global mortality rate,[19]; 191 children with septic shock treated with norepinephrine,28.8%
same,mortality rate in preterm neonates,[19]; in vivo,35.3%
same,mortality,[19]; when dose reached 0.75 µg kg per minute,46.2%
same,arterial pH and lactate,[20]; H2 to H24,arterial pH increased and lactate level decreased
same,ECMO use,[20]; in vivo,3%
same,cardiac double product (surrogate of myocardial oxygen consumption),[20]; in vivo,did not change
same,heart rate evolution,[20]; in vivo,did not change
same,incidence of arrhythmia,[20]; in vivo,33%
same,mortality,[20]; in vivo,37%
same,incidence of refractory shock,"[20]; titrated to MAP 70 mmHg, epinephrine n = 27, norepinephrine n = 30",7%
CC(=O)NC[C@H]1CN(c2ccc(N3CCOCC3)c(F)c2)C(=O)O1 [linezolid],resistance rate,[7],1%
CN(C)c1cc(NC(=O)CNC(C)(C)C)c(O)c2c1C[C@H]1C[C@H]3[C@H](N(C)C)C(=O)C(C(N)=O)=C(O)[C@@]3(O)C(=O)C1=C2O [tygecycline],resistance,[21],100%
C=CCN1CC[C@]23c4c5ccc(O)c4O[C@H]2C(=O)CC[C@@]3(O)[C@H]1C5 [naloxone],tramadol-induced respiratory depression / ventilation,[4],reversed tramadol-induced respiratory depression
CN1[C@@H]2CC[C@H]1C[C@@H](OC(=O)C(CO)c1ccccc1)C2 (some centres unmarked) [atropine],"OR, independent risk factor for delirium",[22],2.333
CN[C@H](CC(C)C)C(=O)N[C@H]1C(=O)N[C@@H](CC(N)=O)C(=O)N[C@H]2C(=O)N[C@H]3C(=O)N[C@H](C(=O)N[C@H](C(=O)O)c4cc(O)cc(O)c4-c4cc3ccc4O)[C@H](O)c3ccc(c(Cl)c3)Oc3cc2cc(c3O[C@@H]2O[C@H](CO)[C@@H](O)[C@H](O)[C@H]2O[C@H]2C[C@](C)(N)[C@H](O)[C@H](C)O2)Oc2ccc(cc2Cl)[C@H]1O [vancomycin],resistance,[23],without any resistance
same,resistance,[1],no resistance
sevelamer,RNA expression of FXR in the kidney versus CKD LPS group,[24]; sevelamer 6 weeks before LPS,increased the RNA expression of FXR
same,"plasmatic concentration of Il1b, TNFa versus CKD LPS group",[24]; sevelamer 6 weeks before LPS,lower plasmatic concentration
same,survival of CKD LPS animals,[24]; sevelamer 6 weeks before LPS 0.5 mg kg,improved the survival
Amoxicillin clavulanic acid [AMC],efficiency,[25]; community-acquired peritonitis,77%
same,impact when AMC was inadequate,[25]; in vivo,no impact on morbidity and mortality
